In ChEMBL document CHEMBL1201862, “PubChem BioAssay data set” (2004):
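The compound was tested at five concentrations on cells cultured in 96-well plates, with a 48-hour exposure period. Here, GI50 denotes the concentration required for 50% inhibition of growth.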 Activity calls are given as the source filed them. No stated cut-off is given here; in the data, active = GI50 up to about 1.1 µM and inactive = higher.

How the values were obtained:
Assay in all cases: inhibition of tumour cell growth, NCI panel, 48 h
786-0 = tested on: 786-0
A498 = tested on: A498
A549 = tested on: A549
ACHN = tested on: ACHN
BT-549 = tested on: BT-549
CAKI-1 = tested on: CAKI-1
CCRF-CEM = tested on: CCRF-CEM
COLO 205 = tested on: COLO 205
DU-145 = tested on: DU-145
EKVX = tested on: EKVX
HCC 2998 = tested on: HCC 2998
HCT-116 = tested on: HCT-116
HCT-15 = tested on: HCT-15
HOP-62 = tested on: HOP-62
HOP-92 = tested on: HOP-92
HT-29 = tested on: HT-29
Hs-578T = tested on: Hs-578T
IGROV-1 = tested on: IGROV-1
K562 = tested on: K562
KM12 = tested on: KM12
LOX IMVI = tested on: LOX IMVI
M14 = tested on: M14
MCF7 = tested on: MCF7
MDA-MB-231 = tested on: MDA-MB-231
MDA-MB-435 = tested on: MDA-MB-435
MDA-N = tested on: MDA-N
MOLT-4 = tested on: MOLT-4
Malme-3M = tested on: Malme-3M
NCI-H226 = tested on: NCI-H226
NCI-H23 = tested on: NCI-H23
NCI-H460 = tested on: NCI-H460
NCI-H522 = tested on: NCI-H522
NCI/ADR-RES = tested on: NCI/ADR-RES
OVCAR-3 = tested on: OVCAR-3
OVCAR-4 = tested on: OVCAR-4
OVCAR-5 = tested on: OVCAR-5
OVCAR-8 = tested on: OVCAR-8
PC-3 = tested on: PC-3
RPMI-8226 = tested on: RPMI-8226
RXF 393 = tested on: RXF 393
SF-268 = tested on: SF-268
SF-295 = tested on: SF-295
SF-539 = tested on: SF-539
SK-MEL-28 = tested on: SK-MEL-28
SK-MEL-2 = tested on: SK-MEL-2
SK-MEL-5 = tested on: SK-MEL-5
SK-OV-3 = tested on: SK-OV-3
SN12C = tested on: SN12C
SNB-19 = tested on: SNB-19
SNB-75 = tested on: SNB-75
SR = tested on: SR
SW-620 = tested on: SW-620
T47D = tested on: T47D
TK-10 = tested on: TK-10
U-251 = tested on: U-251
UACC-257 = tested on: UACC-257
UACC-62 = tested on: UACC-62
UO-31 = tested on: UO-31

## COc1ccc2c(C)cc(N/N=C(\C)C=O)nc2c1
786-0
  GI50: 11.6 µM (inactive)
A498
  GI50: 14.5 µM (inactive)
A549
  GI50: 18.5 µM (inactive)
ACHN
  GI50: 15.6 µM (inactive)
BT-549
  GI50: 15.1 µM (inactive)
CAKI-1
  GI50: 14.4 µM (inactive)
CCRF-CEM
  GI50: 1.82 µM (inactive)
COLO 205
  GI50: 13.8 µM (inactive)
DU-145
  GI50: 11.7 µM (inactive)
EKVX
  GI50: 16.6 µM (inactive)
HCC 2998
  GI50: 11.9 µM (inactive)
HCT-116
  GI50: 11 µM (inactive)
HCT-15
  GI50: 3.78 µM
HOP-62
  GI50: 8.79 µM (inactive)
HOP-92
  GI50: 10.5 µM (inactive)
HT-29
  GI50: 12.2 µM (inactive)
Hs-578T
  GI50: 15.5 µM (inactive)
IGROV-1
  GI50: 16.5 µM (inactive)
K562
  GI50: 2.47 µM (inactive)
KM12
  GI50: 12.3 µM (inactive)
LOX IMVI
  GI50: 10.2 µM (inactive)
M14
  GI50: 13.6 µM (inactive)
MCF7
  GI50: 8.79 µM (inactive)
MDA-MB-231
  GI50: 9.33 µM (inactive)
MDA-MB-435
  GI50: 10.8 µM (inactive)
MDA-N
  GI50: 10.8 µM (inactive)
MOLT-4
  GI50: 4.51 µM (inactive)
Malme-3M
  GI50: 12 µM (inactive)
NCI-H226
  GI50: 10.5 µM (inactive)
NCI-H23
  GI50: 11.8 µM (inactive)
NCI-H460
  GI50: 8.99 µM (inactive)
NCI-H522
  GI50: 12.6 µM (inactive)
NCI/ADR-RES
  GI50: 11.7 µM (inactive)
OVCAR-3
  GI50: 2.25 µM (inactive)
OVCAR-4
  GI50: 11.2 µM (inactive)
OVCAR-5
  GI50: 13 µM (inactive)
OVCAR-8
  GI50: 11.5 µM (inactive)
PC-3
  GI50: 9.2 µM (inactive)
RPMI-8226
  GI50: 6.31 µM (inactive)
RXF 393
  GI50: 10.6 µM (inactive)
SF-268
  GI50: 13.8 µM (inactive)
SF-295
  GI50: 10 µM (inactive)
SF-539
  GI50: 6.25 µM (inactive)
SK-MEL-28
  GI50: 13.7 µM (inactive)
SK-MEL-2
  GI50: 13.4 µM (inactive)
SK-MEL-5
  GI50: 12.7 µM (inactive)
SK-OV-3
  GI50: 11.2 µM (inactive)
SN12C
  GI50: 11.2 µM (inactive)
SNB-19
  GI50: 13 µM (inactive)
SNB-75
  GI50: 13.6 µM (inactive)
SR
  GI50: 1.64 µM (inactive)
SW-620
  GI50: 7.57 µM (inactive)
T47D
  GI50: 15.5 µM (inactive)
TK-10
  GI50: 15.7 µM (inactive)
U-251
  GI50: 11.4 µM (inactive)
UACC-257
  GI50: 15.8 µM (inactive)
UACC-62
  GI50: 12.6 µM (inactive)
UO-31
  GI50: 13.2 µM (inactive)
